The subject of data set [1] is HIV1 modified pNL4-3.Luc.R-E-virus. Put plainly: Western assay of HIV p24 gag expression in infected CEM T cells. Conditions: Western assay with HIV p24 antibody, FIG. 4. It is filed as cell-based. The source says:
The ability of a compound in accordance with General Formula 1, including derivatives in accordance with General Formulae 1-1 to 1-20, or pharmaceutically acceptable salts thereof, to inhibit the expression of at least a portion of a virus genome containing an IRES sequence can be also be determined by assessing the expression of a native protein within a viral genome. In some embodiments, the ability of a compound or pharmaceutically acceptable salt to inhibit expression of native protein can be assessed by using antibodies for a protein normally expressed from the virus genome. For example, HIV p24 gag is a protein normally expressed by HIV1 that can be detected using the HIVI p24 antibody. Accordingly, compounds in accordance with General Formula 1, including derivatives in accordance with any of General Formulae 1-1 to 1-20, or pharmaceutically acceptable salts thereof, can be assessed for the ability to inhibit proliferation of the HIV1 by infecting CEM T cells with the HIV1 modified pNL4-3.Luc.R-E-virus and assessing the expression of HIV p24 gag with the HIV p24 antibody. […]
A compound or salt may be wrongly classified as capable of inhibiting expression of at least a portion of a virus genome containing an IRES sequence due to unequal loading of proteins within an assay. […] In some embodiments, equivalent protein loading can be assessed by ponceau staining. […]

For another data set, the system named is HSV-1. As to the kind of experiment: Plaque forming assay, Hep-2 cell monolayers infected with HSV-1. Conditions: Hep-2 cells, 100 μM. It is filed as cell-based. How it is done: The ability of a virus to infect cells can be assessed using a plaque assay. In a plaque assay, an infected cell culture is grown under a nutrient gel. During culturing, the virus being study infects cells and replicates. However, the spread of virus to other cells is limited by the overlaying nutrient gel. As such, replicated virus released from one infected cell can only infect neighboring cells. The spread of virus amongst neighboring cells creates a plaque that can be visualized by staining. By counting the visible plaques, the amount of plaque forming units (pfu) per mL can be determined. If cells treated with a compound display a reduced amount of pfu compared to cells not treated with the compound after being infected with same amount of viral particles, then the reduction in pfu would have to be result of the ability of the […] virus. Thus, the ability of a compound in accordance with General Formula 1, including derivatives in accordance with any of General Formulae 1-1 to 1-20, to inhibit the ability of HSV-1 to proliferate can be assessed with a plaque assay.
Hep-2 cell monolayers were placed in well plates. The plated Hep-2 cells were treated with either DSMO as a control, 100 μM SD-29 or 100 μM SD29-12. A total of 6 well plates were prepared for each treatment condition. To each treated well plate an HSV-1 infecting solution comprising 1 mL of supernatants containing of the same amount of serially diluted HSV-1 particles were added. Accordingly, the treated well plates were infected with infection solutions containing the same amount of HSV-1 particles. After adsorption for 2 hours, the medium was removed and the treated cells were washed twice with serum-free DMEM and overlaid with phenol-free DMEM containing 5% FCS, 0.5% low-melting point agarose (GIBCO), and 1% penicillin-streptomycin. After either 0, 6, 12, 24 hours, the plaques present in each treated well plate were stained red and the number of plaques presented counted. Table 1 reports the mean plaque forming unit (pfu) determined for each treated well plate after averaging the number of pfu from the different plates receiving the same treatment.

The values below come from US11576901B2, “Methods for treating viral infection” (HOWARD UNIVERSITY, priority 2016, dated 2023).

SMILES strings stand for the structures.

As for `COc1ccc(-c2nnc(SCC(=O)O)n2N)cc1` [SD-29-12], the “expression of HIV p24 gag” value in data set [1] is “does not inhibit expression of HIV p24 gag”. Besides, the “mean plaque forming unit (pfu)” value with HSV-1 (0 hpi) was determined as 0 pfu; in the data set on HSV-1 (6 hpi), 380 pfu; in the data set with HSV-1 (12 hpi) it was 3600 pfu; in the data set on HSV-1 (24 hpi), 2600000 pfu.

`Nn1c(-c2cccc(F)c2)n[nH]c1=S` [5e, 4-amino-5-(3-fluorophenyl)-2,4-dihydro-3H-1,2,4-triazole-3-thione] yielded a melting point of 220 °C.

Broadly, the melting point is the temperature of the solid-liquid transition.
